“And” between values parts separate entries of the source, which are not always exact repeats. Equal values may be shown once.

Series [1] has as its system A2780CP. Put plainly: MTT cell viability assay. In kind it is cell-based. The settings on record: Homo sapiens, A2780C/P, Ovarian, 48 h, ± SD of triplicates. Here is the method: (§1) In addition, the morphological changes in 12b-treated cancer cell lines at concentrations of 6.25 and 12.50 µM are shown in Figure 6.
(§2) According to the procedures of Skehan et al. (with minor modifications), the cancer or normal cells were seeded in a 96-well plate (100 µL/well). After overnight incubation at 37 °C and 5% CO2, the cells were incubated with 50 µM of each tested compound or DMSO (0.5% v/v). After 48 h of incubation, MTT (3-(4,5-dimethylthiazoyl)-2,5-diphenyl-tetrazolium bromide) 5 mg/mL Phosphate-Buffered Saline (PBS) was added, and the plate was incubated for 4 h. After that, acidified sodium dodecyl sulfate (SDS) solution (10% SDS containing 0.01N HCl in 1× PBS) was used to solubilize formazan crystals. The absorbance was measured after 14 h of incubation at λ570–630 nm by a Biotek plate reader (Gen5™).

Series [2] deals with A2780. Put plainly: MTT cell viability assay. In kind it is cell-based. The settings on record: Homo sapiens, Ovarian, 48 h, ± SD of triplicates. Here is the method: as §1, §2
(In general: Tetrazolium assays rely on reduction of a dye to a coloured formazan, in cell work by metabolically active cells.)

Series [3] deals with HT-29. Put plainly: MTT cell viability assay. In kind it is cell-based. As to conditions: Homo sapiens, Colon, 48 h, ± SD of triplicates. Here is the method: as §1, §2
The test system of series [4] is HepG2. Put plainly: MTT cell viability assay. In kind it is cell-based. The settings on record: Homo sapiens, Liver, 48 h, ± SD of triplicates. Here is the method:
as §1, §2

The subject of series [5] is MCF-7. Put plainly: MTT cell viability assay. In kind it is cell-based. As to conditions: Homo sapiens, MCF7, Breast, 48 h, ± SD of triplicates. Here is the method:
as §1, §2

The test system of series [6] is MDA-MB-231. Briefly: MTT cell viability assay. In kind it is cell-based. As to conditions: Homo sapiens, Breast, 48 h, ± SD of triplicates. The procedure: as §1, §2
The subject of series [7] is SKOV-3. Put plainly: MTT cell viability assay. As to conditions: Homo sapiens, SK-OV-3, Ovarian, 48 h, ± SD of triplicates. In kind it is cell-based. The procedure:
as §1, §2

For series [8], the system named is normal human skin fibroblast cells (HSF). Put plainly: Selectivity towards cancer cells, normal cells by MTT. In kind it is cell-based. The settings on record: at a concentration as high as 50 µM, 48 h. Here is the method:
Furthermore, the selectivity index (SI) of compound 12b towards the various cancer cell lines was evaluated by detecting the required concentration to kill 50% of normal human skin fibroblast cells (HSF).
According to the procedures of Bézivin et al. (with minor modifications), the selectivity of compound 12b against cancer cell lines was evaluated by seeding human skin fibroblast cells (HSF) at 5 × 10^4 cells/mL in a 96-well plate and incubating them overnight at 37 °C and 5% CO2. On the second day, serial dilution of the compound 12b was added. After 48 h of incubation, the viability of HSF cells was determined by MTT assay as mentioned above and the selectivity index (SI) was calculated according to Equation (1):
Equation (1) Calculation of selectivity index. (1) SI=IC50 normal cells/IC50 cancer cell

For series [9], the system named is HepG2 cells. Briefly: Cell-cycle analysis by flow cytometry (PI). In kind it is cell-based, human. The settings on record: HepG2, 48 h; 5.6 in DMSO-treated cells. Here is the method:
The mechanism of action of 12b was investigated by evaluating its effectiveness in modulating the cell cycle and induction of apoptosis.
According to Gray et al., HepG2 cells were seeded in a 6-well plate (2 mL/well) and incubated at 37 °C and 5% CO2 for 12 h. Cell synchronization at the G1 phase was performed by incubating the cells with serum-free medium for 12 h, then cells were treated with 5.5 or 11 μM of 12b. After 48 h of incubation, cells were washed twice with ice-cold 1× PBS and subjected to trypsinization. The detached cells were centrifuged at 500× g for 5 min at 4 °C. Then, the cell pellet was resuspended in ice-cold 1× PBS and fixed with absolute ethanol. After 2 h of incubation at −20 °C, the fixed cells were washed with ice-cold 1× PBS. The cell pellet was resuspended in propidium (PI)/RNase (BD Biosciences, BDB550825, Franklin Lakes, NJ, USA) and incubated for 30 min at room temperature (RT) in the dark, then the DNA content in each phase was measured by flow cytometry using BD FACS Calibur.

Series [10] relates to HepG2 cells. Put plainly: Wound-healing assay. In kind it is cell-based, human. As to conditions: HepG2, serum-free media, 24 h, vs DMSO-treated cells. The procedure:
A wound-healing assay is a simple and economical assay used to investigate the anti-metastatic activity of compounds. Cells were treated with compound 12b in serum-free media for 24 h. After that, the cells were fixed with ice-cold methanol and air-dried, then stained with 0.5% crystal violet.

The subject of series [11] is MMP-9. Put plainly: Western blot analysis in HepG2 cells. In kind it is cell-based, human. As to conditions: HepG2, 48 h. Here is the method:
(§3) The mitogen-activated protein kinase (MAPK) pathway is considered to be a key player in the gene expression of survival, proliferative, and anti-apoptotic proteins. Aberrant dysregulation in the MAPK pathway activity has been linked to the overall poor prognosis in various cancers. […] Additionally, compound 12b was further tested against p38, MKK3, and JNK using ELISA assay protocols at a concentration of 11 µM. […] The overexpression of JNK might have contributed to the NO released from 12b and reactive oxygen species (ROS). In summary, the novel anticancer lead compound 12b is worthy of further investigation and activity improvement.
(§4) The cells were seeded (2.5 × 10^5 cells/mL) and treated as described above. After 48 h of incubation with compound 12b, cells were lysed by RIPA buffer containing 1x protease and phosphatase inhibitor cocktail (Thermo Scientific™, Waltham, MA, USA). The supernatant was collected after centrifugation at 4 °C and the Pierce BCA Protein Assay Kit (Thermo Scientific™, 23225, Waltham, MA, USA) was used for protein concentration detection. Proteins were then separated using SDS-PAGE at 100 V for 45 min. After that, the proteins were transferred to a nitrocellulose membrane. The membrane was subjected to a suitable primary antibody overnight. Then, an appropriate HRP-conjugated secondary antibody was used. GAPDH was used as a loading control. The membrane was developed using WesternBright® ECL (Advansta Inc., K-12045-D20, San Jose, CA, USA), and the signal was detected using ChemiDoc XRS^+ (1708265, Bio-Rad Laboratories, Hercules, CA, USA).
Background: Immunoblotting shows a protein as a band on a membrane.

For series [12], the system named is p21. Briefly: Western blot analysis in HepG2 cells. In kind it is cell-based, human. The settings on record: HepG2, 48 h. Here is the method:
as §3, §4

Series [13] relates to p27. Put plainly: Western blot analysis in HepG2 cells. In kind it is cell-based, human. As to conditions: HepG2, 48 h. The procedure: as §3, §4
The subject of series [14] is p53. Put plainly: Western blot analysis in HepG2 cells. As to conditions: HepG2, 48 h. In kind it is cell-based, human. Here is the method: as §3, §4
Series [15] concerns pERK. Briefly: Western blot analysis in HepG2 cells. In kind it is cell-based, human. As to conditions: HepG2, 48 h. Here is the method:
as §3, §4

Series [16] concerns total ERK. Briefly: Western blot analysis in HepG2 cells. In kind it is cell-based, human. The settings on record: HepG2, 48 h. The procedure:
as §3, §4

Series [17] addresses VEGFR-2 (Homo sapiens, UniProt P35968). Briefly: VEGFRx kinase assay (BPS Bioscience kit). As to conditions: VEGFR-2 inhibitory activity IC50, duplicate, luminescence kinase kit.
Experimental: The kinase assay was performed according to BPS Bioscience® kinase assay kit protocols [17, 74, 75, 76, 77]. […] The master mixture (25 μL) was added to every well then inhibitor solution of each well, labeled as “Test Inhibitor”, was added. For the “Positive Control” and “Blank”, the same solution without inhibitor (Inhibitor buffer) was added. To the wells designated as “Blank”, 1x Kinase Buffer 1 was added. FLT1/VEGFR2/FLT3 enzyme was thawed on ice and diluted with 1x Kinase Buffer 1 then added to the wells designated “Positive Control” and “Test Inhibitor Control”. The plate was incubated at 30 °C for 45 min then ADP-Glo reagent/Kinase-Glo Max reagent was added to each well. The plate was covered with aluminum foil and incubated at room temperature for 15 min. The luminescence was measured using the microplate reader. In case of FLT1 and FLT3, the plate was incubated for 45 min, then Kinase Detection reagent was added to each well and the plate was covered with aluminum foil and incubated at room temperature for another 45 min. The luminescence was measured immediately using the Tecan–spark® reader. A “Blank” value was subtracted from all readings.

Chain of VEGFR-2 (P35968 789-1356 limits assumed): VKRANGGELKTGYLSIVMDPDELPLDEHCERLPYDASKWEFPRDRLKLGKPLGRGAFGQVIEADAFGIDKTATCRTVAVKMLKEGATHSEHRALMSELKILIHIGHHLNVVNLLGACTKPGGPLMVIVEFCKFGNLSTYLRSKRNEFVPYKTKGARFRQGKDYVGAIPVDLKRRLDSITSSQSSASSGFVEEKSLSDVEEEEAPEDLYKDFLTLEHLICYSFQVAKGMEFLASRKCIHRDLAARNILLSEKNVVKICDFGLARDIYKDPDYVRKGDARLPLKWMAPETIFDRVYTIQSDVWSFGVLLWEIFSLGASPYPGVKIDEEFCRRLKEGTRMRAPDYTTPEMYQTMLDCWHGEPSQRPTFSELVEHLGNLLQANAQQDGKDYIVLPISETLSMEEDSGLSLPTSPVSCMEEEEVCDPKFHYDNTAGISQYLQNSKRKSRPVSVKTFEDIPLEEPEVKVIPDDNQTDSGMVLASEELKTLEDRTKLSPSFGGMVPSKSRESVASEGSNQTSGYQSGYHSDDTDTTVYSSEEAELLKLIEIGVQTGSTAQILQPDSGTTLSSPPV

For the compound `[O-][n+]1onc(-c2ccccc2)c1CNc1ccc(Nc2nc(C(F)(F)F)nc3c2cnn3-c2ccc(Br)cc2)cc1` [12b, 3-(((4-((1-(4-bromophenyl)-6-(trifluoromethyl)-1H-pyrazolo[3,4-d]pyrimidin-4-yl)amino)phenyl)amino)methyl)-4-phenyl-1,2,5-oxadiazole 2-oxide], the IC50 is 11.6 ± 0.1 µM in [1]; 15 ± 0.15 µM in series [2]; 15 ± 0.24 µM in series [3]; 11.5 ± 0.5 µM in series [4]; 22.3 ± 0.3 µM in series [5]; 13 ± 0.2 µM in [6]. Besides, the IC50 is 18.6 ± 0.2 µM in series [7]; 92 nM and 90 nM in [17]. The “morphological changes in HSF cells” value in [8] was “did not cause any morphological changes”. The “cell-cycle arrest at subG1” value in [9] is 24. Besides, the “rate of wound healing” value in series [10] is recorded as “decreased the rate of wound healing”. Further, the “expression of metalloproteinase MMP-9” value in series [11] is “downregulation”. Moreover, the “expression of p21” value in series [12] is given as “over-expression”. Moreover, the “expression of p27” value in [13] is listed as “over-expression”. In addition, in series [14], the “expression of p53” value is recorded as “slight increase in the expression”. The “level of phosphorylated ERK” value in series [15] is given as “decreased the level”. Moreover, in [16], the “level of total ERK” value is given as “decreased the level”.

Broadly, the IC50 is the point on the concentration scale where inhibition reaches its midpoint.

Source of the values: paper PMC8880564, “Design, Synthesis, and Biological Evaluation of a Novel VEGFR-2 Inhibitor Based on a 1,2,5-Oxadiazole-2-Oxide Scaffold with MAPK Signaling Pathway Inhibition” (Pharmaceuticals, 2022).
